Laboratory results: patent US20230054749A1, “Herbicide Combinations Comprising Glufosinate and Flumiclorac-pentyl” (BASF SE, priority 2020, published 2023)
Where two headings read alike, the source gives them in different places.

System: Abutilon theophrasti
Assay: Greenhouse post-emergence herbicidal activity (plant damage, 0 to 100% scale vs untreated control)
Format: in vivo
Details: 0.796 g ai/ha, ABUTH, AMS + NIS added, read-out: Solo Flumiclorac (0.796 g ai/ha) % activity
Source text: For the post-emergence treatment, the test plants were first grown to 3.5 to 4.5 inch (8.9 to 11.4 cm) tall, and only then treated. Here, the herbicidal compositions were suspended or emulsified in water as distribution medium and sprayed using finely distributing nozzles.
Flumiclorac (commercial product name: Resource) was used as an emulsifiable concentrate having an active ingredient concentration of 100 g/l. Glufosinate (commercial product name: Liberty) was used as an aqueous soluble liquid of glufosinate ammonium having an active ingredient concentration of 280 g/l. Adjuvants of ammonium sulfate (AMS) and non-ionic surfactant (NIS) were added in all treatments. AMS and NIS were AMS Liquid and Induce at rates of 1680 g/ha and 0.25% (v/v), respectively.
The test period extended over 21 days after treatment (DAT). During this time, the plants were tended and their response to the individual treatments was evaluated.
The evaluation for the damage caused by the chemical compositions was carried out using a scale from 0 to 100%, compared to the untreated control plants. Here, 0 means no damage and 100 means complete destruction of the plants.
E = X + Y - (X.Y/100) • where X = effect in percent using flumiclorac at an application rate a; • Y = effect in percent using glufosinate at application rate b; • E = expected effect (in %) of flumiclorac plus glufosinate at application rates a + b.
The value E corresponds to the effect (plant damage or injury) which is to be expected if the activity of the individual compounds is just additive.

CCCCCOC(=O)COc1cc(N2C(=O)C3=C(CCCC3)C2=O)c(F)cc1Cl [Flumiclorac, flumiclorac-pentyl]
inhibition at 0.796 g/ha (168 h, 7 DAT): 53% | inhibition at 0.796 g/ha (336 h, 14 DAT): 45% | inhibition at 0.796 g/ha (504 h, 21 DAT): 41%
